Literature values as cited in patent US8834858B2, “Treatment for dyslipidemia” (Solvotrin Therapeutics Ltd., priority 2011, dated 2014).
Read-outs that look alike come from different tables or passages of the source.

Experiments:
TG, LDL, HDL = details: atorvastatin 10 mg/day, Slo-Niacin to 1500 mg/day, 3-month segments; cited from earlier work
[1] = system: LDL cholesterol, HDL cholesterol, TG; details: adult dyslipidemias; cited from earlier work
[2] = cited from earlier work
[3] = cited from earlier work; remark: listed apart in the source
[4] = cited from earlier work; remark: listed apart in the source
[5] = cited from earlier work; remark: listed apart in the source
PGD2 receptor-1 (DP1) = PGD2 receptor-1 (DP1) (Homo sapiens, UniProt Q13258); details: cited from earlier work; for reduction of flushing associated with 1.5 g ER nicotinic acid: single dose study
[6] = system: fasting glucose, glycated albumin, TG, total cholesterol; details: cited from earlier work; for fall in fasting glucose levels: two weeks
[7] = system: fasting glucose, glycated albumin; details: 4.0 g, one month; cited from earlier work
HbA1c = details: cited from earlier work
[8] = high risk patients (secondary prevention)

Chain of PGD2 receptor-1 (DP1) (Q13258 whole entry): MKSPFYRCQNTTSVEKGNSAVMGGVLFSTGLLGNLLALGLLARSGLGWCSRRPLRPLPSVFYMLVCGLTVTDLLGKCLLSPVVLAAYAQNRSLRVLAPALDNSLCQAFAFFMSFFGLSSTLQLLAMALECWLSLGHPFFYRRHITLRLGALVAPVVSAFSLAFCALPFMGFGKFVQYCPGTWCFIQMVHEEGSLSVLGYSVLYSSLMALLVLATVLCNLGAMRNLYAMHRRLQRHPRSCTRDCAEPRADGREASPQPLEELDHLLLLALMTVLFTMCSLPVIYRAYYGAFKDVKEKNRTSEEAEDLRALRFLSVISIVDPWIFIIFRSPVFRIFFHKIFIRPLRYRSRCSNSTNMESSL

SMILES: CC(C)c1c(C(=O)Nc2ccccc2)c(-c2ccccc2)c(-c2ccc(F)cc2)n1CC[C@@H](O)C[C@@H](O)CC(=O)O [Atorvastatin]
- HDL (TG, LDL, HDL): +6%
- LDL (TG, LDL, HDL): −36%
- TG (TG, LDL, HDL): −26%

SMILES: O=C1[C@H](CC[C@H](O)c2ccc(F)cc2)[C@@H](c2ccc(O)cc2)N1c1ccc(F)cc1 [Ezetimibe]
- HDL cholesterol [1]: +3%
- LDL cholesterol [1]: −18 to −24%
- TG [1]: No change

SMILES: CC(=O)Oc1ccccc1C(=O)O [aspirin]
- prevention of non-fatal vascular events [2, 8]: about 30%
- prevention of vascular death [2, 8]: approximately 15%
- risk reduction ([2]; patients with unstable angina): approximately 50%
- reductions in risk of MI ([2]; primary prevention): 25%-33
- avoidance of a major vascular event ([2]; prior MI, stroke, or TIA, approximately 30 months): 36 per 1,000 patients
- avoidance of a major vascular event ([2]; unstable angina, treated for 6 months): 50 per 1,000 patients
- Lowest effective daily dose ([3]; Acute MI): 160 mg
- Lowest effective daily dose ([3]; Acute ischaemic stroke): 160 mg
- Lowest effective daily dose ([3]; Hypertension): 75 mg
- Lowest effective daily dose ([3]; Men at high CV risk): 75 mg
- Lowest effective daily dose ([3]; Polycythemia): 100 mg
- Lowest effective daily dose ([3]; Severe carotid artery stenosis): 75 mg
- Lowest effective daily dose ([3]; Stable angina): 75 mg
- Lowest effective daily dose ([3]; TIA and ischaemic stroke): 50 mg
- Lowest effective daily dose ([3]; Unstable angina): 75 mg
- effect on flushing symptoms ([4]; 325 mg, 30-60 minutes before IR nicotinic acid): attenuated flushing symptoms
- patients with moderate or greater flushing ([4]; first week of treatment, with vs without aspirin): 15%
- flushing-specific discontinuation rate ([4]; four week study, 325 mg aspirin before ER nicotinic acid vs no aspirin): 1.8%
- reduction of the incidence of flushing ([4]; pre-treatment with aspirin): 18%
- mean rate of treatment discontinuation because of nicotinic acid flushing ([4]; with adjunctive aspirin): approximately 6.5%
- patients with at least occult bleeding ([5]; daily aspirin use even at low doses): More than 75%
- absolute annual increased risk of major bleeding episodes ([5]; low dose aspirin (75-325 mg daily), 22 randomized trials): 1.3 per 1000 patients

SMILES: CS(=O)(=O)c1cc(F)cc2c3c(n(Cc4ccc(Cl)cc4)c12)[C@@H](CC(=O)O)CC3 [laropiprant]
- reduction of flushing associated with 1.5 g ER nicotinic acid (PGD2 receptor-1 (DP1); 30 mg dose): 47%
- reduction of flushing associated with 1.5 g ER nicotinic acid (PGD2 receptor-1 (DP1); 100 mg dose): 67%
- reduction of flushing associated with 1.5 g ER nicotinic acid (PGD2 receptor-1 (DP1); 300 mg dose): 74%
- overall discontinuation rate (PGD2 receptor-1 (DP1); 4,700 patients, ER nicotinic acid without vs with added laropiprant): 25.3%
- rate of moderate/severe flushing (PGD2 receptor-1 (DP1); nicotinic acid without vs with added laropiprant (Kush 2009)): 24%

SMILES: O=C(Oc1ccccc1C(=O)O)c1ccccc1O [salsalate]
- fall in fasting glucose levels ([6]; 3.0 g/daily): 9%
- decrease in TG concentrations ([6]; 3.0 g): 11%
- fall in fasting glucose levels ([6]; 4.5 g daily): 19%
- reduction in glycated albumin ([6]; 4.5 g dose): 19%
- decrease in TG concentrations ([6]; 4.5 g): 40%
- fall in total cholesterol ([6]; in vivo): 12%
- reduction of fasting glucose compared with placebo [7]: 13%
- reduction of glycated albumin [7]: 17%
- reduction of glycemic response after an oral glucose challenge [7]: 20%
- mean change in HbA1c levels compared with placebo (HbA1c; 3.0 g daily): −0.36%
- mean change in HbA1c levels compared with placebo (HbA1c; 3.5 g daily): −0.34%
- mean change in HbA1c levels compared with placebo (HbA1c; 4.0 g daily): −0.49%
